Measurements from ChEMBL document CHEMBL1129172, “Synthesis of water soluble prodrug of DMP323” (Bioorg Med Chem Lett, 1996).
≈ marks a conversion by molar mass, not a printed value.

What was measured:
[1] = Solubility in water.; type: physicochemical; conditions: read-out: S
[2] = Compound was evaluated for oral bioavailability in dogs; 37-38 %; type: ADME, organism-based, Canis lupus familiaris; conditions: dog, in vivo

solubility [1]: 10 µg/mL (≈ 17.6 µM)
bioavailability [2]: 38%
Structure (SMILES): O=C1N(Cc2ccc(CO)cc2)[C@H](Cc2ccccc2)[C@H](O)[C@@H](O)[C@@H](Cc2ccccc2)N1Cc1ccc(CO)cc1 [DMP-323]
